# Patent publication US8338472B2, “Hexahydrocyclopentyl[F]indazole carboxamides and derivatives thereof as selective glucocorticoid receptor modulators” (Merck Sharp & Dohme Corp., priority 2008, dated 2012)
# Read-outs that look alike come from different tables or passages of the source.
# How the values were obtained:
# [1] = biological target: T1, glucocorticoid receptor (GR) (Homo sapiens, UniProt P04150); test: Ligand binding assay (GR BIND), 3H-dexamethasone displacement in MDA-MB-453 cell lysate; conditions: GR BIND Ki
# T1 sequence (P04150 1-777): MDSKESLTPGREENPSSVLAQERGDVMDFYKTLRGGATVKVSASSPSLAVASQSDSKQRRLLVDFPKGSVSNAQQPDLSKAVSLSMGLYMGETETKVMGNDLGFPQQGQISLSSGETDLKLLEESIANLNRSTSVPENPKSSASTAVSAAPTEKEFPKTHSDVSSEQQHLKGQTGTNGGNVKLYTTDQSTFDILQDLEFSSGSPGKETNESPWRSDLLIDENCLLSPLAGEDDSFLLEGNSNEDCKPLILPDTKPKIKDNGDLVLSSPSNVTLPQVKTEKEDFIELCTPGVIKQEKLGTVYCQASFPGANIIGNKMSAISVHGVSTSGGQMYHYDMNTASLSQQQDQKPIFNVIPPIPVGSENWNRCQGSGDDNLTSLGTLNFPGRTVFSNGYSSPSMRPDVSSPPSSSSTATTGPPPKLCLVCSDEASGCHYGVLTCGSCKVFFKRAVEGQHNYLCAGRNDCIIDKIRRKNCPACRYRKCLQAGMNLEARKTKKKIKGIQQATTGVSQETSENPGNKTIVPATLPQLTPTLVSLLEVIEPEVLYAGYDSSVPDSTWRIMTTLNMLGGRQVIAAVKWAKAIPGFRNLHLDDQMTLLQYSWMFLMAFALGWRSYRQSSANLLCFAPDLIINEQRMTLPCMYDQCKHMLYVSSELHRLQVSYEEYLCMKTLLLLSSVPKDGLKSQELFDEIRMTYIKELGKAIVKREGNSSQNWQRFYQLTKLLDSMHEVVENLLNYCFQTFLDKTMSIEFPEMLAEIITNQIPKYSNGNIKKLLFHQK
# Procedure: Binding Buffer: TEGM (10 mM Tris-HCl, 1 mM EDTA, 10% glycerol, 1 mM beta-mecaptoethanol, 10 mM Sodium Molybdate, pH 7.2)
# 50% HAP Slurry: Calbiochem Hydroxylapatite, Fast Flow, in 10 mM Tris, pH 8.0 and 1 mM EDTA.
# Wash Buffer: 40 mM Tris, pH7.5, 100 mM KCl, 1 mM EDTA and 1 mM EGTA.
# Dexmethasone-methyl-^3H, (DEX*); (Amersham cat# TRK645)
# Dexamethasone(DEX) (Sigma, cat# D1756):
# The cell pellet is washed twice with TEGM (10 mM Tris-HCl, 1 mM EDTA, 10% glycerol, 1 mM beta-mercaptoethanol, 10 mM Sodium Molybdate, pH 7.2). After the final wash, the cells are resuspended in TEGM at a concentration of 10^7 cells/mL. The cell suspension is snap frozen in liquid nitrogen or ethanol/dry ice bath and transferred to −80° C. freezer on dry ice. Before setting up the binding assay, the frozen samples are left on ice-water to just thaw (˜1 hr). Then the samples are centrifuged at 12,500 g to 20,000 g for 30 min at 4° C. The supernatant is used to set-up assay right away. If using 50 μL of supernatant, the test compound can be prepared in 50 μL of the TEGM buffer.
# Procedure for Multiple Compound Screening
# 1×TEGM buffer is prepared, and the isotope-containing assay mixture is prepared in the following order: EtOH (2% final concentration in reaction), ^3H-DEX (Amersham Biosciences) and 1×TEGM. [e.g. For 100 samples, 200 μL (100×2) of EtOH+4.25 μL of 1:10 ^3H-Dex stock+2300 μL (100×23) 1×TEGM]. The compound is serially diluted, e.g., if starting final conc. is 1 μM, and the compound is in 25 μL of solution, for duplicate samples, 75 μL of 4×1 μM solution is made and 3 μL of 100 μM is added to 72 μL of buffer, and 1:5 serial dilution.
# 25 μL of ^3H-DEX (6 nM) trace and 25 μL compound solution are first mixed together, followed by addition of 50 μL receptor solution. The reaction is gently mixed, spun briefly at about 200 rpm and incubated at 4° C. overnight. 100 μL of 50% HAP slurry is prepared and added to the incubated reaction which is then vortexed and incubated on ice for 5 to 10 minutes. The reaction mixture is vortexed twice more to resuspend HAP while incubating reaction. The samples in 96-well format are then washed in wash buffer using The FilterMate™ Universal Harvester plate washer (Packard). The washing process transfers HAP pellet containing ligand-bound expressed receptor to Unifilter-96 GF/B filter plate (Packard). The HAP pellet on the filter plate is incubated with 50 μL of MICROSCINT (Packard) scintillint for 30 minutes before being counted on the TopCount microscintillation counter (Packard). IC50s are calculated using DEX as a reference.
# Glucocorticoid Receptor = biological target: T2, Glucocorticoid Receptor (Homo sapiens, UniProt P04150); test: Trans-Activation Modulation of Glucocorticoid Receptor (GRAMMER), MMTV-LUC reporter gene in A549 cells; type: cell-based; conditions: Table 1; for Emax: A549, A549 cells, Emax relative to 300 nM dexamethasone, read-out: Transactivation A549 Cells GRAMMER Emax; for EC50: inflection point, A549 cells, read-out: Transactivation A549 Cells GRAMMER IP
# T2 construct: These cells express large amount of the GR and are very responsive to GC treatment; endogenous in cells; host or cells: A549 cells transiently transfected with the MMTV-LUC reporter
# T2 sequence (P04150 1-777): T1 sequence (P04150 1-777)
# Excerpt: Trans-Activation Modulation of Glucocorticoid Receptor (GRAMMER)
# This assay assesses the ability of test compounds to control transcription from the MMTV-LUC reporter gene in lung adenocarcinoma A549 cells or MDA-MB-453 cells, a human breast cancer cell line that naturally expresses the human GR. The assay measures induction of a modified MMTV LTR/promoter linked to the LUC reporter gene.
# The routine transient assay consists of plating 7,000-25,000 cells/well of a white, clear-bottom 96-well plate. Alternatively, 384-well plates can be used at a cell concentration of 10,000/well. The media that the cells are plated in is “exponential growth medium” which consists of phenol red-free RPMI1640 containing 10% FBS, 4 mM L-glutamine, 20 mM HEPES, 10 ug/mL human insulin, and 20 ug/mL gentamicin. Incubator conditions are 37° C. and 5% CO2. The transfection is done in batch mode. The cells are trypsinized and counted to the right cell number in the proper amount of fresh media. It is then gently mixed with the FuGene6/DNA mix and plated onto the 96 or 384-well plate, all the wells receive 100 uL or 40 uL, respectively, of medium+lipid/DNA complex then incubated 37° C. overnight. The transfection cocktail consists of serum-free OptiMEM, FuGene6 reagent and DNA. The manufacturer's (Roche Biochemical) protocol for cocktail setup is as follows: The lipid to DNA ratio is approximately 2.5:1 and the incubation time is 20 min at room temperature. Sixteen to 24 hours after transfection, the cells are treated with dexamethasone to a final concentration of 10 nM as well as the compound of interest, such that final DMSO (vehicle) concentration is equal to or less than 1%. Each plate also contains samples that are treated with 10 nM dexamethasone alone, which is used as the 100% activity control. The cells are exposed to the compounds for 24 hours. After 24 hours, the cells are lysed by a Promega cell culture lysis buffer for approximately 30 min and then the luciferase activity in the extracts is assayed in the 96-well format luminometer. In 384-well format, Steady-Glo (Promega) or Steady-Lite (PerkinElmer) can be used by adding an equal volume of reagent to the media present in each well. Activity induced by 10 nM dexamethasone alone is set at 100% activity. Antagonist activity is calculated by determining the decrease in dexamethasone-induced activity in response to compound treatment relative to samples that were treated with dexamethasone alone. […] This transactivation assay can be performed in an agonist and antagonist mode to identify these different activities.
# Activity of test compounds is calculated as the Emax relative to the activity obtained with 300 nM dexamethasone. Activity of test compounds is calculated as the Emax relative to the activity obtained with 300 nM DEX. […] The action of compounds is also tested in an antagonist mode (Anti-GRAMMER) in which the cells are treated with medium containing an agonist such as 10 nM DEX and the ability to agents to inhibit the activation by an agonist is measured.
# human GR = biological target: T3, human GR (Homo sapiens, UniProt P04150); test: Transrepression Assay (GITAR), TNFα-β-lactamase reporter gene in U937 cells; type: cell-based; conditions: for GITAR Greater than by GRAMMER % SEP: GITAR Emax minus GRAMMER Emax; for EC50: inflection point, U937 cells, read-out: Transrepression U937 Cells GITAR IP
# T3 construct: U937 cells contain an endogenous glucocorticoid receptor (GR); endogenous in cells; host or cells: U937 cells stably transfected with the TNF-alpha promoter/beta-lactamase reporter
# T3 sequence (P04150 1-777): T1 sequence (P04150 1-777)
# Excerpt: Transrepression Assay (GITAR)
# This assay assesses the ability of test compounds to control transcription from the TNFα-β-lactamase reporter gene in U937 cells, a human myelomonocytic leukemia cell line that naturally expresses the human GR. The assay measures compound dependent-repression of the TNFa promoter linked to a reporter gene.
# The human U937 cells that had been stablely transfected with the TNF-α promoter driving β-lactamase are used for this assay. U937 cells contain an endogenous glucocorticoid receptor (GR). Cells are maintained in RPMI 1640 Growth medium (Gibco Cat#11875-093) containing 25 mM HEPES, 10% FBS, 2 mM L-Glutamine, 1 mM Sodium pyruvate, 25 μg/ml Gentamicin (Gibco Cat#15710-064), 1:1000 2-Mercaptoethanol (Gibco Cat#21985-023) and 0.8 mg/ml G418 (Gibco Cat#10131-027). The density of the cells in the flask needs to be about 1×10^6−3×10^6/ml at the time of harvest. Usually, the cells are split to 1.2˜1.4×10^5/ml (1:10) 3 days prior to the assay. 50,000 cells/well are plated in 96 well black-walled plates the day of assay. Test compounds are added 10 pt/well, and cells are incubated at 37° C. for 30-45 min. For assaying compounds, first dilute 1:10 in DMSO to make 1 mM, then further dilute 1:100 in medium to make 10× stock prior to adding to the cells. Add 50 ng/ml PMA (Sigma, cat# P8139) 10 μL/well to a final concentration 5 ng/ml, and 1 μg/ml LPS (Sigma, cat# L4130) 10 μL/well to a final concentration 100 ng/ml. Incubate cells at 37° C. overnight for ˜18 hr. PMA is stored frozen as 100 μg/ml stock in DMSO. Dilute 1:10 in DMSO for a working stock of 10 μg/ml and store at −20C. For assaying, dilute the […] working stock 1:200 in medium to make a 10× solution (50 ng/ml). Store frozen LPS at 1 mg/ml in PBS, dilute 1:1000 in medium to make 10× (1 μg/ml) for the assay. Add 6× loading buffer (CCF2−AM) 20 μL/well, and incubate at room temperature for 70-90 min. […] The activity repressed by 100 nM dexamethasone alone is set as 100% activity.
# [2] = U-937, U937 cells, activity repressed by 100 nM dexamethasone = 100%, Table 1, read-out: Transrepression U937 Cells GITAR Emax
# [3] = U-937, text statement, 100 nM dexamethasone = 100%, read-out: maximal activity in the transrepression assay (GITAR)
SMILES,Ki ([1]; compounds in the art (WO03/086294)) [nM],Emax (Glucocorticoid Receptor) [%],EC50 (Glucocorticoid Receptor) [nM],GITAR Greater than by GRAMMER % SEP (human GR; Table 1) [%],Emax (human GR; [2]) [%],Emax (human GR; [3]) [%],EC50 (human GR; Table 1) [nM],Ki ([1]; Table 1) [nM]
"C[C@]12Cc3cnn(-c4ccc(F)cc4)c3C=C1CC[C@@H]2C(=O)Nc1ccccc1 (single isomer, unassigned) [reference compound]",2420,–,–,–,–,–,–,–
"C[C@]12Cc3cnn(-c4ccc(F)cc4)c3C=C1CC[C@@H]2C(=O)NC(Cc1ccccc1)c1ccccc1 (stereo partly drawn) [Compound 2, (4αR,5S)-N-(1,2-diphenylethyl)-1-(4-fluorophenyl)-4α-methyl-1,4,4α,5,6,7-hexahydrocyclopenta[f]indazole-5-carboxamide]",–,3.1,1120,24.5,27.6,> 5,3540,12.7
"C[C@]12Cc3cnn(-c4ccc(F)cc4)c3C=C1CC[C@@H]2C(=O)NCc1ccc(Cl)cc1Cl [Compound 3, (4αR,5S)-N-(2,4-dichlorobenzyl)-1-(4-fluorophenyl)-4α-methyl-1,4,4α,5,6,7-hexahydrocyclopenta[f]indazole-5-carboxamide]",–,0.9,5590,16.1,17,> 5,5200,16.2
"CCCN(CC)C(=O)[C@H]1CCC2=Cc3c(cnn3-c3ccc(F)cc3)C[C@@]21C [Compound 4, (4αR,5S)-N-ethyl-1-(4-fluorophenyl)-4α-methyl-N-propyl-1,4,4α,5,6,7-hexahydrocyclopenta[f]indazole-5-carboxamide]",–,19.2,909,2.3,21.5,> 5,1000,2.5
"C[C@]12Cc3cnn(-c4ccc(F)cc4)c3C=C1CC[C@@H]2C(=O)N(Cc1ccc(Cl)cc1Cl)CC1CC1 [Compound 7, (4αR,5S)-N-(cyclopropylmethyl)-N-(2,4-dichlorobenzyl)-1-(4-fluorophenyl)-4α-methyl-1,4,4α,5,6,7-hexahydrocyclopenta[f]indazole-5-carboxamide]",–,13.4,1400,4.8,18.2,> 5,586,1.3
"CC(C)CCN(CCC(C)C)C(=O)[C@H]1CCC2=Cc3c(cnn3-c3ccc(F)cc3)C[C@@]21C [Compound 8, (4αR,5S)-1-(4-fluorophenyl)-4α-methyl-N,N-bis(3-methylbutyl)-1,4,4α,5,6,7-hexahydrocyclopenta[f]indazole-5-carboxamide]",–,5.6,728,12.4,18,> 5,812,1
"C[C@]12Cc3cnn(-c4ccc(F)cc4)c3C=C1CC[C@@H]2C(=O)N1CCCCC1CCc1ccccc1 (stereo partly drawn) [Compound 18, (4αR,5S)-1-(4-fluorophenyl)-4α-methyl-5-{[2-(2-phenylethyl)piperidin-1-yl]carbonyl}-1,4,4α,5,6,7-hexahydrocyclopenta[f]indazole]",–,3.8,–,6.3,10.1,> 5,–,–

# Continued, values first:
Ki ([1]; compounds in the art (WO03/086294)) [nM],Emax (Glucocorticoid Receptor) [%],EC50 (Glucocorticoid Receptor) [nM],GITAR Greater than by GRAMMER % SEP (human GR; Table 1) [%],Emax (human GR; [2]) [%],Emax (human GR; [3]) [%],EC50 (human GR; Table 1) [nM],Ki ([1]; Table 1) [nM],SMILES
–,45.3,177,22.2,67.5,> 5,328,1.7,"CCCN(CCC)C(=O)[C@H]1CCC2=Cc3c(cnn3-c3ccc(F)cc3)C[C@@]21C [Compound 1, (4αR,5S)-1-(4-Fluorophenyl)-4α-methyl-N,N-dipropyl-1,4,4α,5,6,7-hexahydrocyclopenta[f]indazole-5-carboxamide]"
–,35.4,358,24.2,59.6,> 5,674,0.9,"CCCN(CC1CC1)C(=O)[C@H]1CCC2=Cc3c(cnn3-c3ccc(F)cc3)C[C@@]21C [Compound 5, (4αR,5S)-N-(cyclopropylmethyl)-1-(4-fluorophenyl)-4α-methyl-N-propyl-1,4,4α,5,6,7-hexahydrocyclopenta[f]indazole-5-carboxamide]"
–,1.3,133,11.5,12.8,> 5,0.9,19.4,"C[C@]12Cc3cnn(-c4ccc(F)cc4)c3C=C1CC[C@@H]2C(=O)Nc1ccccc1 [Compound 6, (4αR,5S)-1-(4-fluorophenyl)-4α-methyl-N-phenyl-1,4,4α,5,6,7-hexahydrocyclopenta[f]indazole-5-carboxamide]"
